Literature values in patent publication US20240042038A1, “FORMULATIONS OF CABAZITAXEL” (Zhuhai Beihai Biotech Co., Ltd., priority 2020, published 2024).

SMILES: CO[C@H]1C(=O)[C@]2(C)[C@@H](OC)C[C@H]3OC[C@@]3(OC(C)=O)[C@H]2[C@H](OC(=O)c2ccccc2)[C@]2(O)C[C@H](OC(=O)[C@H](O)[C@@H](NC(=O)OC(C)(C)C)c3ccccc3)C(C)=C1C2(C)C [Cabazitaxel, cabazitaxel]
- solubility in alcohol: soluble
- solubility in water: practically insoluble
